“Also recorded” adds a separate entry of the source.
How the values were obtained:
[1] = system: HEKα15#17 cells (control cell line without sweet receptor); test: Same calcium assay on the control cell line without sweet receptor; type: cell-based; conditions: FIG. 1 grey bars
Method: (§1) For measurement of human T1R2/T1R3 taste receptor dependent activity a control cell line without sweet receptor based on HEK 293 and a cell line expressing the sweet receptor hT1R2/hT1R3 based on HEK 293, respectively, are seeded into assay plates and labelled with the calcium sensitive fluorescence dye Fluo4-AM in a culture medium. The potential modulators, e.g. the test compound, are added to the control cell line and to the cell line expressing the sweet receptor hT1R2/hT1R3, respectively.
(§2) A stable cell line based on HEK293 was termed HEKα15#17 served as control for functional Gα-protein and a stable cell line HEKGα15#17R2R3b#8 C6 served as cell line expressing the sweet receptor hT1R2/hT1R3 based on HEKGα15#17.
(§3) The cells were cultured in DMEM/HG and 10% FCS Gold, 4 mM L-Glutamin, 1.3 mg/ml Geneticin (HEKGα15#17) or the same medium additionally containing 6 μg/ml Blasticidin (HEKGα15#17R2R3b#8 C6). The medium for the assay was DMEM/HG (high glucose, 4.5 g/l glucose, Life Technologies) and 10% FCS Gold, 4 mM L-Glutamin (HEKGα15#17) or DMEM/LG (low glucose, 1 g/l glucose; Life Technologies) and 10% FCS Gold (HEKGα15#17R2R3b#8C6), respectively. 1.3 Evaluation of the sweet receptor modulating activity of rosmarinic acid
In order to evaluate the sweet receptor modulating activity of rosmarinic acid, rosmarinic acid was added to the cultures in a concentration of 25 μM in a volume of 50 μl. Controls were KH-buffer (Krebs HEPES-buffer: 118 mM NaCl, 4.7 mM KCl, 1.2 mM MgSO4, 1.2 mM KH2PO4, 4.2 mM NaHCO3, 1.3 mM CaCl2, 10 mM Hepes, pH 7.4) either without or with sweetness enhancer.
Further controls for function of G-protein and receptor were isoproterenol Sigma Aldrich), ionomycin (1 μM, Calbiochem) and ATP (1 μM, Applichem).
For measurement of human T1R2/T1R3 taste receptor dependent activity, on day 1 of the test procedure the HEKα15#17 cells (control cell line without sweet receptor) and the HEKGα15#17R2R3b#8 C6 cells (cell line expressing the sweet receptor hT1R2/hT1R3), respectively, were transferred to low-glucose medium.
On day 2 the cells were seeded into assay plates at a density of 25.000 cells/well. Assay plates for fluorescence measurement (black clear bottom 96-cavity plates, Greiner Bio-One) were coated with poly-D-lysine. For direct comparison both cell lines (control cell line without sweet receptor and cell line expressing the sweet receptor hT1R2/hT1R3) were seeded into different cavities of the same assay plate. The plate was placed into the incubator for 48 hours at 37° C., 5% CO2, 100% relative humidity.
On day 4 the calcium assay was performed. For this assay, the cells were marked with Fluo4-AM in medium and KH-buffer. To each cavity 100 μl KH-Puffer/250 μM sulfinpyrazone/4 μM Fluo4-AM were added gently to 100 μl medium (final concentration of Fluo4-AM=2 μM, stock solution of Fluo4-AM 1 mM in DMSO, excitation at 485 nm, emission at 520 nm, Fisher Scientific, 58239 Schwerte, Germany).
The plate was placed into the incubator for 1 hour. In the mean time the test substances (“ligands”) were prepared in a separate plate (5 times concentrated, 150 μl/cavity, and then automatically 50 μl/cavity were transferred into the screening cell plate by pipetting robot (FLEX-station, Molecular Devices, Sunnyvale, Calif.).
The culture medium was carefully removed and 200 μl KH-buffer/250 μM sulfinpyrazone per cavity was added slowly. Cells were left in the FLEX-station for 20 minutes for adaptation, followed by measurement at 37° C.
In the bar diagram the grey bars (control—without hT1R2/hT1R3) indicate the measured Fluo4-AM fluorescence increase of the respective test compound added to the control cell line, the black bars (assay—with hT1R2/hT1R3) indicate the measured Fluo4-AM fluorescence increase of the respective test compound added to the cell line expressing the sweet receptor hT1R2/hT1R3.

[2] = molecular target: T1, human taste receptor T1R2/T1R3 (Homo sapiens, UniProt Q7RTX0+Q8TE23); test: Recombinant human taste receptor T1R2/T1R3 dependent cell based calcium assay (Fluo4-AM), cell line expressing the sweet receptor
T1 construct: expressed in transfected cells; host or cells: HEK293 stably expressing mouse G-alpha-15 (HEKGα15#17R2R3b#8 C6)
T1 sequence (Q8TE23 20-839): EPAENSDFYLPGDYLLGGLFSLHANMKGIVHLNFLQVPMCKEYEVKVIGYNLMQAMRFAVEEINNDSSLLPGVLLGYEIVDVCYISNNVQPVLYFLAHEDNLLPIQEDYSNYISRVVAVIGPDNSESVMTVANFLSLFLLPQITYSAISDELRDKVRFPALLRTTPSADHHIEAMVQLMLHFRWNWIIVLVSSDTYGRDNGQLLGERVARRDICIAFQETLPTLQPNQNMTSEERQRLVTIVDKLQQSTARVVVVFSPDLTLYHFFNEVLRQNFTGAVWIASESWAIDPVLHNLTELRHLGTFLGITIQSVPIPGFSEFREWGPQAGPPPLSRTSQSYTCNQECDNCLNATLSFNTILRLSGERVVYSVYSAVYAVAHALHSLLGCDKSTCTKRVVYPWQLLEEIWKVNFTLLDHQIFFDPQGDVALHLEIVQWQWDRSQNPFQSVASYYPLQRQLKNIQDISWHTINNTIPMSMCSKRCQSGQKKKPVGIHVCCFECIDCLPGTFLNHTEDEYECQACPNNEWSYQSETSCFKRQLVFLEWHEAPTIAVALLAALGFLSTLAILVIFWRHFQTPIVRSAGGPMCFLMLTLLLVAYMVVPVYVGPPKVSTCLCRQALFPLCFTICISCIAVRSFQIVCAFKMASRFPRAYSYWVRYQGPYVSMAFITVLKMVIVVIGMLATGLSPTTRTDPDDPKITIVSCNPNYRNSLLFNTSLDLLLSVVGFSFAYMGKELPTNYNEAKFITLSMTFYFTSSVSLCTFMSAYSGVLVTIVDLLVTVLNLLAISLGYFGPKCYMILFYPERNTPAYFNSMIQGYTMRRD
T1 sequence (Q7RTX0 21-852): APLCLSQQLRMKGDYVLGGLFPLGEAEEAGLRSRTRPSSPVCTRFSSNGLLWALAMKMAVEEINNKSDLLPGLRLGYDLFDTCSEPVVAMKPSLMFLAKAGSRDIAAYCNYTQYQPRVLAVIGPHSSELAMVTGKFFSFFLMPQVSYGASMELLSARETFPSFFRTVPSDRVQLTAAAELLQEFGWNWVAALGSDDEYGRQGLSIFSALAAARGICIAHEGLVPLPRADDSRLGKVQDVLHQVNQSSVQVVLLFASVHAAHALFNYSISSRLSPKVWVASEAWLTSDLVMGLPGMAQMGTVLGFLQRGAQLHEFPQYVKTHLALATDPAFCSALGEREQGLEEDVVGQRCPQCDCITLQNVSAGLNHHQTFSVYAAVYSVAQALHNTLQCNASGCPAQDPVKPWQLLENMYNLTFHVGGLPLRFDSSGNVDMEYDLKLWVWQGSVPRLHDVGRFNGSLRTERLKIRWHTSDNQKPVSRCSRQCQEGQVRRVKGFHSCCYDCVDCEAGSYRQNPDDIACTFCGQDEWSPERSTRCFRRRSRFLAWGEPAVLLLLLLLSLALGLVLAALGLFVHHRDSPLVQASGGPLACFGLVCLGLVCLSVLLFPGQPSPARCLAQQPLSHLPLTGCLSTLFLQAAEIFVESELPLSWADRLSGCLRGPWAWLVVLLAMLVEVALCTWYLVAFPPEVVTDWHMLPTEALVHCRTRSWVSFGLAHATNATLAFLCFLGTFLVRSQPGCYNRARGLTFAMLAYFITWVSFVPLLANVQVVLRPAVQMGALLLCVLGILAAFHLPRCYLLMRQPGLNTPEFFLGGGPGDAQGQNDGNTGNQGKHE
Method: as §1, §2
as §3, with “1.3 Evaluation of the sweet receptor modulating activity of rosmarinic acid” left out
On day 2 the cells were seeded into assay plates at a density of 25.000 cells/well. Assay plates for fluorescence measurement (black clear bottom 96-cavity plates, Greiner Bio-One) were coated with poly-D-lysine. […]

[3] = Taste and spit assay with a panel of trained sensory evaluators; type: in vivo, human; conditions: 5 panelists
Source text: The taste of a sample of a compound, e.g. rosmarinic acid, with regard to sweetness and/or sweetness enhancing properties, in other embodiments, may be assessed in vivo by using a panel of trained sensory evaluators experienced in the sweet taste estimation procedure, e.g. in the taste and spit assay as described e.g. in Example 2.
(§4) In these cases, panelists are asked to take a sample of the liquid to be assessed (test substance, e.g. rosmarinic acid) into the mouth and after some time allowed for taste perception to spit the sample out completely. Subsequently, the panelists are asked to rinse their mouth well with water or black tea to reduce any potential carry over effects. The tasting of a sample can be repeated if required.
In a first descriptive test (qualitative assessment for sweetness) the panelists are asked to taste the quality of single samples (maximum 3 subsequent samples). The individuals of the taste panel are asked to answer the following questions with regard to the quality of taste: 1) does the sample taste sweet?. 2) is there another taste detectable (bitter, sour, salty, umami)?. 3) is there an off- or aftertaste?. 4) is there anything else remarkable about the perception of the sample?
In the next step (assessment of sweetness enhancing, e.g. fructose enhancing, features) the panelists are asked to answer questions in a pairwise comparison test to determine the enhancement of sweet taste of the test substance with fructose relative to fructose only. Again the panelists are given samples. Two samples are prepared for direct comparison regarding sweetness. One sample contains fructose in a solvent and the other sample additionally contains the test substance. Designation of the samples with A and B is randomized and is decoded after the taste procedure. The questions to be answered are: 1) does one sample taste sweeter than the other?, 2) if so, which one?, 3) are there any other differences in the taste between the two samples? The result of the taste and spit assay is a qualitative evaluation of the differences between the two samples.
The taste of a sample of rosmarinic acid with regard to sweetness and fructose enhancing features was assessed by using a panel of trained sensory evaluators experienced in the sweet taste estimation procedure. 5 individuals were asked to taste the quality of single samples of 10 ml volume.
as §4, with “Panelists were” for “In these cases, panelists are”, “(20 μM test substance” for “(test substance, e.g.”, “acid in 0.5% ethanol)” for “acid)”, “were” for “are”, “could” for “can”, “required. […]” for “required.”

[4] = test compound without added enhancer/fructose, sodium cyclamate 30 mM, ATP 1 μM, ionomycin 1 μM, fructose 20 mM, rosmarinic acid 25 μM
[5] = 20 μM with 4% fructose in 0.5% ethanol

CC(C)NCC(O)c1ccc(O)c(O)c1 (stereo not shown) [isoproterenol]
Fluo4-AM fluorescence increase (activation) of the control cell line [1, 4]: activate

O=C(CO)[C@@H](O)[C@H](O)[C@H](O)CO [fructose]
Fluo4-AM fluorescence increase (activation) of the control cell line [1, 4]: does neither activate

Nc1ncnc2c1ncn2[C@@H]1O[C@H](COP(=O)(O)OP(=O)(O)OP(=O)(O)O)[C@@H](O)[C@H]1O [ATP]
Fluo4-AM fluorescence increase (activation) of the control cell line [1, 4]: activate

C[C@H](CCC(=O)O)C[C@H](C)C[C@H](C)C(=O)/C=C(\O)[C@H](C)C[C@H](C)C/C=C/[C@@H](C)[C@@H](O)[C@@H](C)[C@@H](O)C[C@@H]1CC[C@@](C)([C@H]2CC[C@@](C)([C@@H](C)O)O2)O1 [ionomycin]
Fluo4-AM fluorescence increase (activation) of the control cell line [1, 4]: activate

O=S(=O)([O-])NC1CCCCC1.[Na+] [sodium cyclamate]
Fluo4-AM fluorescence increase (activation) of the control cell line [1, 4]: does not activate

O=C(/C=C/c1ccc(O)c(O)c1)O[C@H](Cc1ccc(O)c(O)c1)C(=O)O [rosmarinic acid]
Time response in the cell assay ([2]; measured over ca. 1.5 minutes (86 seconds), FIG. 2): selective stimulation of receptor carrying cells
Fructose enhancing activity in the cell based in vitro assay ([2]; rosmarinic acid in the presence of fructose): acting as a fructose enhancer; also recorded: enhances the activity of fructose; also recorded: acts as a fructose enhancer
Fluo4-AM fluorescence increase (activation) of the control cell line ([1]; rosmarinic acid 25 μM in the presence of fructose (20 mM)): does not activate
Fluo4-AM fluorescence increase (activation) of the control cell line [1, 4]: does not activate
Off-taste or other taste (Phase I qualitative assessment) ([3]; 20 μM in 0.5% ethanol, 10 ml): No off-taste or any other taste than sweetness was detected
Taste quality of the single sample (Phase I qualitative assessment) ([3]; 20 μM in 0.5% ethanol, 10 ml, ambient temperature): no characteristic intrinsic taste
Panelists identifying the sample with 4% fructose plus test substance as sweeter than 4% fructose only (Phase II pairwise comparison) [3, 5]: four
Panelists tasting no difference between the two samples (Phase II pairwise comparison) [3, 5]: One
